Measured values as given in publication PMC6332318, “Synthetic Development of New 3-(4-Arylmethylamino)butyl-5-arylidene-rhodanines under Microwave Irradiation and Their Effects on Tumor Cell Lines and against Protein Kinases” (Molecules, 2015).

System: panel of seven representative tumoral cell lines
Test: in vitro inhibition of cell proliferation, whole panel
Type: cell-based
Details: all cell lines of the panel, without selectivity; read-out: IC50, moderate antitumor activities in all cell lines of the panel
Description: As an initial effort to investigate their in vitro bioactivity, the new synthesized 3-(4-arylmethylamino)butyl-2-thioxo-1,3-thiazolidine-4-one 9a–n and also their precursors 6a–f were evaluated for their in vitro inhibition of cell proliferation. For this study, we used a panel of seven representative tumoral cell lines, namely HuH7 D12 (differential hepato cellular carcinoma), Caco 2 (differentiating colorectal adenocarcinoma), MDA-MBD231 ([…]), HCT 116 (actively proliferating colorectal adenocarcinoma), PC3 (prostate carcinoma), NCI-H727 (lung carcinoma), HaCat keratinocyte and, diploid skin fibroblasts as normal cell lines for control.
Skin diploid fibroblastic cells were provided by BIOPREDIC International Company (Rennes, France). Caco2 (Ref ECACC: 86010202), Huh-7D12 (Ref ECACC: 01042712), MDA-MB-231 (Ref ECACC: 92020424), HCT-116 (Ref ECACC: 91091005), PC3 (Ref ECACC: 90112714), NCI-H727 (Ref ECACC: 94060303) cell lines were obtained from the ECACC collection and HaCaT (from Cell Lines Service, Eppelheim, Germany). Cells were grown according to ECACC recommendations. […] Cells were fixed in cooled solution of 90% ethanol/5% acetic acid, nuclei were stained with Hoechst 3342 (Sigma) and counted using automated imaging analysis (Cellomics Arrayscan VTI/HCS Reader, Thermo/Scientific, Waltham, MA, USA). The IC50 were graphically determined.

O=C1/C(=C/c2ccc3c(c2)OCO3)SC(=S)N1CCCCNCc1ccc2c(c1)OCO2 [Compound 9h, (5Z)3-[4-(1,3-Benzodioxol-5-ylmethylamino)butyl]-5-(1,3-benzodioxol-5-ylmethylene)-2-thioxo-1,3-thiazolidin-4-one]
IC50: 10 to 17 µM
